Experimental data reported in patent US11160836B2, “Transgenic pig islets and uses thereof for treating diabetes” (priority 2014, dated 2021).

Assays:
[1] = tested on: MIN6 cells; experiment: Glucose-induced insulin secretion from transfected MIN6 cells, static incubation; format: cell-based, murine; settings: MIN6 cells 48 h after plasmid transfection; 2 h in 1 or 15 mM glucose; control cells 2.2
Experimental: FIG. 2 is a histogram showing glucose-induced insulin secretion from transfected Min6 cells incubated with 1 (G1) or 15 mM (G15) glucose. The numbers above pairs of columns represent the stimulation ratio (G15/G1) in each group. * p<0.05 indicates significant difference between test groups and controls. Values are means±SEM for n=15-21 from 7 different experiments.
To verify the effect of the transgenic proteins on insulin secretion, transfected and control MIN6 cells were challenged by an increase of glucose concentration during static incubation experiments. Insulin secretion was measured and the stimulation index i.e., the ratio between insulin secretion at high glucose and insulin secretion at low glucose, of transgenic and control cells was calculated. In brief, 2·10^5 cells were seeded in 12-well plates and cultivated for 48 h before they were transfected with one the plasmids carrying the GLP-1 (7-37) gene (GLP-1), the mutated GLP-1 (7-A8S-37) gene (GLP-1 Ser8) or the constitutively activated muscarinic receptor gene (M3). Control cells were simply exposed to Lipofectamine without any plasmidic DNA. 48 h after transfection, cells were starved then incubated for 2 h in a 1 mL Krebs-Ringer buffer containing either 1 or 15 mM glucose. Insulin secretion was measured in the incubation media and expressed as a percentage of total insulin content of the cells.

[2] = tested on: adult pig islets; experiment: Dynamic islet perifusion, glucose-induced insulin secretion of virus-treated adult pig islets; format: cell-based; settings: adenoviral vector MOI 200, 48 h, perifused G1 then 30 min G15
Experimental: FIG. 4 is a graph showing the insulin secretion of isolated adult pig islets exposed to 200 MOI viral expression vectors carrying sequences coding for GLP-1 (GLP-1 Ser8), activated muscarinic receptor (M3R) or both (GLP-1+M3R) during 48 hours. Batches of 600 islets were perifused in krebs medium containing 1 mM glucose (G1) then 15 mM glucose (G15) as indicated on top of the figure. Insulin secretion was then measured in the effluent fractions. Values are means±SEM for n=3-4 from 4 different preparations.
The effect of transgenic PKA and PKC activation on glucose-induced insulin secretion was also tested during dynamic islet perifusion experiments. Control and virus-treated adult islets were placed in perifusion chambers sealed with 0.2 μm filters. Islets were first perifused with 1 mM glucose (G1) krebs medium during 30 minutes for equilibrium then during 10 minutes in G1 with media collection every 2 minutes followed by 30 minutes stimulation with G15.

[3] = tested on: isolated pig islets; experiment: Glucose-induced insulin secretion from isolated pig islets, static incubation with pharmacological PKC/PKA activators; format: cell-based; settings: 2 h, PMA 20 nM and/or forskolin 1 μM
Experimental: FIG. 1 is a histogram showing the insulin secretion from adult and neonate isolated pig islets. […] Insulin secretion was measured in the incubation media and expressed as a percentage of total insulin content of each batch of islets. The numbers above the columns represent the fold increase of insulin secretion in test groups compared to 15 mM glucose alone. * p<0.05. […] Finally, insulin was quantified in recovered media and in incubated islets by radioimmuno-assay.

Compound | stimulation index (insulin secretion G15/G1) [1] | effect on acute glucose-induced insulin secretion during perifusion, in words [2] | fold increase of insulin secretion compared to 15 mM glucose alone ([3]; islets from adult pigs) | fold increase of insulin secretion compared to 15 mM glucose alone ([3]; islets from neonate pigs)
GLP-1 | 2.6 | virtually no effect | – | –
CCCCCCCCCCCCCC(=O)O[C@@H]1[C@@H](C)[C@@]2(O)[C@@H](C=C(CO)C[C@]3(O)C(=O)C(C)=C[C@@H]23)[C@@H]2C(C)(C)[C@]12OC(C)=O [PMA, phorbol myristate acetate] | – | – | 2 fold | up to 8 fold
